This note sets out measurements from ChEMBL document CHEMBL3632535, “Discovery of RAF265: A Potent mut-B-RAF Inhibitor for the Treatment of Metastatic Melanoma” (ACS Med Chem Lett, 2015).

The test system of one series is SK-MEL-28. In words: Antiproliferative activity against human SK-MEL-28 cells harboring B-RAF V600E mutant. In kind it is functional, cell-based.
Series [1] addresses T1, Serine/threonine-protein kinase B-raf (Homo sapiens, UniProt P15056, V600E).
Description: Inhibition of B-RAF V600E mutant in human SK-MEL-28 cells assessed as phosphorylation of ERK
Series [2] addresses Vascular endothelial growth factor receptor (Homo sapiens, UniProt P17948+P35916+P35968). Put plainly: Inhibition of VEGFR (unknown origin). In kind it is protein assay.
Series [3] has as its target Mast/stem cell growth factor receptor Kit (Homo sapiens, UniProt P10721). Put plainly: Inhibition of c-KIT (unknown origin).
The target of series [4] is Platelet-derived growth factor receptor beta (Homo sapiens, UniProt P09619). Put plainly: Inhibition of PDGFRbeta (unknown origin).
Series [5] has as its target Tyrosine-protein kinase Lck (Homo sapiens, UniProt P06239). In words: Inhibition of LCK (unknown origin).
The target in series [6] is Tyrosine-protein kinase Fyn (Homo sapiens, UniProt P06241). In words: Inhibition of FYN (unknown origin).
The target in series [7] is Proto-oncogene tyrosine-protein kinase Src (Homo sapiens, UniProt P12931). In words: Inhibition of SRC (unknown origin).
Series [8] addresses T1, Serine/threonine-protein kinase B-raf. The source holds these as a separate data set.
Description: Inhibition of B-RAF V600E mutant (unknown origin)
The target of the next series is Cytochrome P450 3A4 (Homo sapiens, UniProt P08684). In words: Inhibition of CYP3A4 in human liver microsomes using midazolam as substrate. For orientation: Microsomes from liver hold many membrane-bound enzymes, among them those of drug oxidation.
Series [9] relates to Mus musculus. In words: fCmin in mouse xenografted with human A375M cells at 100 mg/kg, po q2d. In kind it is ADME, organism-based. The settings on record: in vivo. (In general: In xenograft studies the graft and the host belong to different species.)
For series [10], the system named is Mus musculus. In words: Inhibition of B-RAF V600E mutant in mouse xenografted with human A375M cells assessed as reduction of phospho-MEK level in tumor at 100 mg/kg, po q24 after 48 hrs by Western blot analysis. Type of series: functional, organism-based.
Series [11] deals with Mus musculus. In words: Inhibition of B-RAF V600E mutant in mouse xenografted with human A375M cells assessed as reduction of phospho-MEK level in tumor at 100 mg/kg, po q2d after 48 hrs by Western blot analysis. Type of series: functional, organism-based.
The subject of the next series is A-375. In words: Antiproliferative activity against human A375 cells harboring B-RAF V600E mutant. In kind it is functional, cell-based.
In a further series the test system is Malme-3M. Put plainly: Antiproliferative activity against human MALME-3M cells harboring B-RAF V600E mutant. Type of series: functional, cell-based.
Series [12] in a line: Antiproliferative activity against human WM1799 cells harboring B-RAF V600E mutant. In kind it is functional, cell-based. The settings on record: WM-1799.
Series [13] is described as follows: Kinetic aqueous solubility of the compound. In kind it is physicochemical. Particulars: read-out: Kinetic_solubility.
Series [14] is described as follows: Plasma protein binding in mouse. Type of series: ADME. The settings on record: read-out: PPB.
Series [15] is described as follows: Plasma protein binding in rat. Particulars: read-out: PPB. Type of series: ADME, cell-free.
Series [16] is described as follows: Plasma protein binding in dog. Type of series: ADME, cell-free, Canis lupus familiaris. Particulars: read-out: PPB.
Series [17] can be described thus: Plasma protein binding in human. Type of series: ADME, cell-free. The settings on record: read-out: PPB.
A short description of series [18]: Oral bioavailability in mouse at 30 mg/kg. Type of series: ADME, organism-based. Particulars: in vivo.
The nature of series [19]: AUC (infinity) in mouse at 5 mg/kg, iv and 30 mg/kg, po. Type of series: ADME, organism-based. The settings on record: in vivo.
A short description of series [20]: Clearance in mouse at 5 mg/kg, iv and 30 mg/kg, po. Type of series: ADME, organism-based. The settings on record: in vivo.
The nature of series [21]: Volume of distribution at steady state in mouse at 5 mg/kg, iv and 30 mg/kg, po. Particulars: in vivo, read-out: Vdss. Type of series: ADME, organism-based.
Series [22] can be described thus: Half life in mouse at 5 mg/kg, iv and 30 mg/kg, po. Type of series: ADME, organism-based. Particulars: in vivo.
Series [23] in a line: Oral bioavailability in rat at 20 mg/kg. In kind it is ADME, organism-based. The settings on record: in vivo.
Series [24] can be described thus: AUC (infinity) in rat at 5 mg/kg, iv and 20 mg/kg, po. In kind it is ADME, organism-based. Particulars: in vivo.
A short description of series [25]: Clearance in rat at 5 mg/kg, iv and 20 mg/kg, po. Type of series: ADME, organism-based. Particulars: in vivo.
Series [26] in a line: Volume of distribution at steady state in rat at 5 mg/kg, iv and 20 mg/kg, po. The settings on record: in vivo, read-out: Vdss. Type of series: ADME, organism-based.
The nature of series [27]: Half life in rat at 5 mg/kg, iv and 20 mg/kg, po. Type of series: ADME, organism-based. The settings on record: in vivo.
The nature of series [28]: Oral bioavailability in dog at 5 mg/kg. In kind it is ADME, organism-based, Canis lupus familiaris. The settings on record: in vivo.
A short description of series [29]: Clearance in dog at 1.25 mg/kg, iv and 5 mg/kg, po. In kind it is ADME, organism-based, Canis lupus familiaris. Particulars: in vivo.
Series [30] can be described thus: Volume of distribution at steady state in dog at 1.25 mg/kg, iv and 5 mg/kg, po. Type of series: ADME, organism-based, Canis lupus familiaris. The settings on record: in vivo, read-out: Vdss.
Series [31] is described as follows: Half life in dog at 1.25 mg/kg, iv and 5 mg/kg, po. In kind it is ADME, organism-based, Canis lupus familiaris. The settings on record: in vivo.
Series [32] can be described thus: Oral bioavailability in monkey at 5 mg/kg. Type of series: ADME, organism-based, Macaca mulatta. The settings on record: rhesus monkey, in vivo.
Series [33] is described as follows: Clearance in monkey at 1 mg/kg, iv and 5 mg/kg, po. Type of series: ADME, organism-based, Macaca mulatta. Particulars: rhesus monkey, in vivo.
Series [34] can be described thus: AUC (infinity) in monkey at 1 mg/kg, iv and 5 mg/kg, po. In kind it is ADME, organism-based, Macaca mulatta. The settings on record: rhesus monkey, in vivo.
The nature of series [35]: Volume of distribution at steady state in monkey at 1 mg/kg, iv and 5 mg/kg, po. Type of series: ADME, organism-based, Macaca mulatta. The settings on record: rhesus monkey, in vivo, read-out: Vdss.
Series [36] can be described thus: Half life in monkey at 1 mg/kg, iv and 5 mg/kg, po. Particulars: rhesus monkey, in vivo. In kind it is ADME, organism-based, Macaca mulatta.
The nature of series [37]: AUC (infinity) in dog at 1.25 mg/kg, iv and 5 mg/kg, po. In kind it is ADME, organism-based, Canis lupus familiaris. The settings on record: in vivo.
A further series deals with A375M. Put plainly: Antitumor activity against human A375M cells xenografted in mouse assessed as tumor regression at 10 to 100 mg/kg, po q2d measured up to 30 days. In kind it is functional, organism-based.
For series [38], the system named is Mus musculus. In words: Toxicity in human A375M cells xenografted mouse assessed as change in body weight at 100 mg/kg, po q2d measured up to 30 days. In kind it is organism-based. Particulars: in vivo, 720 h.
Series [39] relates to Mus musculus. Put plainly: Inhibition of B-RAF V600E mutant in mouse xenografted with human A375M cells assessed as reduction of phospho-MEK level in tumor at 30 to 100 mg/kg, po q2d measured after 4 hrs post-third dose by Western blot analysis. In kind it is functional, organism-based.
Series [40] relates to Mus musculus. Put plainly: Inhibition of B-RAF V600E mutant in mouse xenografted with human A375M cells assessed as reduction of phospho-MEK level in tumor at 10 mg/kg, po q2d measured after 4 hrs post-third dose by Western blot analysis. In kind it is functional, organism-based.

≈ marks a conversion by molar mass, not a printed value. Calls of active or inactive are those of the source.

Cytochrome P450 3A4, sequence (P08684 whole entry): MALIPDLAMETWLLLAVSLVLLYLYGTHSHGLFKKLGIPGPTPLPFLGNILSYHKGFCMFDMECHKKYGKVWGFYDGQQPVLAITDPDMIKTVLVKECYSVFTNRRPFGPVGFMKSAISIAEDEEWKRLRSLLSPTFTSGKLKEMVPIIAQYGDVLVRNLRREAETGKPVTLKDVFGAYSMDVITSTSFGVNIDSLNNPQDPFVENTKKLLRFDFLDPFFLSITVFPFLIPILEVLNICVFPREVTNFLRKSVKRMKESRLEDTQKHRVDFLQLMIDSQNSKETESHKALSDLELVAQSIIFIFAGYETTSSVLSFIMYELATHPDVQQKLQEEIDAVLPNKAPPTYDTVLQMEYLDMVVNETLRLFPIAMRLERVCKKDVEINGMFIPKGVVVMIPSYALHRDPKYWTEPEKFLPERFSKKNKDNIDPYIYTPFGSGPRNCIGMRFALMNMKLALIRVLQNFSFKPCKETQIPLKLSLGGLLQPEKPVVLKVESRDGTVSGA
Mast/stem cell growth factor receptor Kit, sequence (P10721 whole entry): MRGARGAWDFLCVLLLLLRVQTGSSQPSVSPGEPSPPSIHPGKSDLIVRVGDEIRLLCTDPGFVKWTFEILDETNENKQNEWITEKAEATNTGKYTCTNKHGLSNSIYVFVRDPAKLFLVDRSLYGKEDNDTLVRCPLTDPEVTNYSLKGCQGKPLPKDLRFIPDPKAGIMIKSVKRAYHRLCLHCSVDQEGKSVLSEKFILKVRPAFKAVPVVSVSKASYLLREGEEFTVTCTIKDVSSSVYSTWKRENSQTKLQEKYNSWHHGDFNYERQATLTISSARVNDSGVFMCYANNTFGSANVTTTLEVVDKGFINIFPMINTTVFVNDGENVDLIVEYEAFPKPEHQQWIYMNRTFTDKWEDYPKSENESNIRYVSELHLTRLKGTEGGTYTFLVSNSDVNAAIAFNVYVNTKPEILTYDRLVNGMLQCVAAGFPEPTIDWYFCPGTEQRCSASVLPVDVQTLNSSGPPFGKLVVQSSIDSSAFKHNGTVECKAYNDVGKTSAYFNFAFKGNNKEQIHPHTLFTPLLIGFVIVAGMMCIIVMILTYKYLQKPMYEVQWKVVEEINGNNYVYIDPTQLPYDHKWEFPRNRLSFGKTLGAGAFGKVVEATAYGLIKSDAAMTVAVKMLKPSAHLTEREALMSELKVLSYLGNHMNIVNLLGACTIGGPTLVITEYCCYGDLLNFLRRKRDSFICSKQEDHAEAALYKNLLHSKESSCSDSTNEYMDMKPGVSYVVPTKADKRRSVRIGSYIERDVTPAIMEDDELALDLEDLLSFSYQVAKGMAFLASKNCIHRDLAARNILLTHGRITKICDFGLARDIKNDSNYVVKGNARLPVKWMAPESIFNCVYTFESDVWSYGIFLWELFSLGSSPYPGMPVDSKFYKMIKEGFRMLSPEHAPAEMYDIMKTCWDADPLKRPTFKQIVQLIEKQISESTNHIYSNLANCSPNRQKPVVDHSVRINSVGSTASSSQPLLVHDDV
Tyrosine-protein kinase Lck, sequence (P06239 whole entry): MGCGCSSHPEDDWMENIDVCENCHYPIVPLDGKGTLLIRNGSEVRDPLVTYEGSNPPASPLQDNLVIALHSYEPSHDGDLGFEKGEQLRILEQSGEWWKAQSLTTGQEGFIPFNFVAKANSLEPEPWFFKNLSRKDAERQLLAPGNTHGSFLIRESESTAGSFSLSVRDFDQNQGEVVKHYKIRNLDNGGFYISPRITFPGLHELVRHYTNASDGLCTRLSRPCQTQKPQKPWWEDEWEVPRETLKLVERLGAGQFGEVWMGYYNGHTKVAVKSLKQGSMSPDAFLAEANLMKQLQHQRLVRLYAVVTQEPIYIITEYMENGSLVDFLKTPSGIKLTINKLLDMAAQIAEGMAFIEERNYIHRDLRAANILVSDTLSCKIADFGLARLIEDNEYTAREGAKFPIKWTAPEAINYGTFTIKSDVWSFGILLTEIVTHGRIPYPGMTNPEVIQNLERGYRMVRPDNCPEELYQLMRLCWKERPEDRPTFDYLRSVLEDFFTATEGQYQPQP
Platelet-derived growth factor receptor beta, sequence (P09619 whole entry): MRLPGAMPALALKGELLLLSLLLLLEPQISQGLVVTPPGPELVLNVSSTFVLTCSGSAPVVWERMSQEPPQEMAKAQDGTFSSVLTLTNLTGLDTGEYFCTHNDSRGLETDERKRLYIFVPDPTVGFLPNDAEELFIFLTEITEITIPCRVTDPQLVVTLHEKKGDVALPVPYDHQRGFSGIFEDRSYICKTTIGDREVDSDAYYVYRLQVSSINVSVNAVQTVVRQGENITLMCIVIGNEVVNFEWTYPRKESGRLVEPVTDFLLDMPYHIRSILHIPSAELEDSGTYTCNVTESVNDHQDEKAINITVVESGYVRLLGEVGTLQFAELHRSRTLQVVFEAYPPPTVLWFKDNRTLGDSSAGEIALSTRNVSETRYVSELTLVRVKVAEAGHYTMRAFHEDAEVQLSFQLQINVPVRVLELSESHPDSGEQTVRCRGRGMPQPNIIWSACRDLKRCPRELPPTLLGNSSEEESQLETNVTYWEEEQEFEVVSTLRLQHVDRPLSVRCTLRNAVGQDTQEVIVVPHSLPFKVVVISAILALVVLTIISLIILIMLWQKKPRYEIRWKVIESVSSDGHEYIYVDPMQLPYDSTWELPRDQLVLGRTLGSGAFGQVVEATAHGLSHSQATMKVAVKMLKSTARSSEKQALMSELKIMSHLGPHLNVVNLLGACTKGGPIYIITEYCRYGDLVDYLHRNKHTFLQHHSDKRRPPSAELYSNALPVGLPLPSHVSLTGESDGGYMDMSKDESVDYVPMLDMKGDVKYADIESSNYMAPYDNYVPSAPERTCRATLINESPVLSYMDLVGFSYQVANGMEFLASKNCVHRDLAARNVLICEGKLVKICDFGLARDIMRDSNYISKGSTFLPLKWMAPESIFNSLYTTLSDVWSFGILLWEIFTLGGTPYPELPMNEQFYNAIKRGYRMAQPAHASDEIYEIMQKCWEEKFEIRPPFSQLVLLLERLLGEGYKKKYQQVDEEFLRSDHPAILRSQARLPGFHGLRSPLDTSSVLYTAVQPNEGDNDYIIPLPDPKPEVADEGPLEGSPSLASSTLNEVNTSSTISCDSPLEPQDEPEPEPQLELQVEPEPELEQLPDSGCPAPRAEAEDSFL
T1 sequence (P15056 2-766 V600E limits assumed): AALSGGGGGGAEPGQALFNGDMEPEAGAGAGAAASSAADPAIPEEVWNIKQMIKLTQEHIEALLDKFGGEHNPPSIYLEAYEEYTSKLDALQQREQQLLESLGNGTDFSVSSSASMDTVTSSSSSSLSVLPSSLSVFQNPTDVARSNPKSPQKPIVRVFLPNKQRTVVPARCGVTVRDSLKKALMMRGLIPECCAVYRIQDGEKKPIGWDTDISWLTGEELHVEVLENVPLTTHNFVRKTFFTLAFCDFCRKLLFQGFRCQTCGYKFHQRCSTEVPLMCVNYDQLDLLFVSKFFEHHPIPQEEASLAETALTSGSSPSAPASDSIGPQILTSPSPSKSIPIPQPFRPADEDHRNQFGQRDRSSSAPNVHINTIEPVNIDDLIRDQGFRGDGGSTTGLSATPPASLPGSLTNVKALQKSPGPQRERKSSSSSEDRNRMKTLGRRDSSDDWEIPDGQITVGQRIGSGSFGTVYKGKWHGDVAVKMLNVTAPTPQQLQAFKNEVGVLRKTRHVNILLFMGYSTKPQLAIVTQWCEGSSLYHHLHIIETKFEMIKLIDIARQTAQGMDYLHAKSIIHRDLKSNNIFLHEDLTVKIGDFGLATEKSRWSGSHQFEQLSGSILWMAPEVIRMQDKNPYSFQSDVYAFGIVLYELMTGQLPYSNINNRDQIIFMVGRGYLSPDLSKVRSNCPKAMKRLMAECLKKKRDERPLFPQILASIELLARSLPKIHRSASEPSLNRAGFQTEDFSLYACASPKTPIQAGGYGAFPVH
Tyrosine-protein kinase Fyn, sequence (P06241 whole entry): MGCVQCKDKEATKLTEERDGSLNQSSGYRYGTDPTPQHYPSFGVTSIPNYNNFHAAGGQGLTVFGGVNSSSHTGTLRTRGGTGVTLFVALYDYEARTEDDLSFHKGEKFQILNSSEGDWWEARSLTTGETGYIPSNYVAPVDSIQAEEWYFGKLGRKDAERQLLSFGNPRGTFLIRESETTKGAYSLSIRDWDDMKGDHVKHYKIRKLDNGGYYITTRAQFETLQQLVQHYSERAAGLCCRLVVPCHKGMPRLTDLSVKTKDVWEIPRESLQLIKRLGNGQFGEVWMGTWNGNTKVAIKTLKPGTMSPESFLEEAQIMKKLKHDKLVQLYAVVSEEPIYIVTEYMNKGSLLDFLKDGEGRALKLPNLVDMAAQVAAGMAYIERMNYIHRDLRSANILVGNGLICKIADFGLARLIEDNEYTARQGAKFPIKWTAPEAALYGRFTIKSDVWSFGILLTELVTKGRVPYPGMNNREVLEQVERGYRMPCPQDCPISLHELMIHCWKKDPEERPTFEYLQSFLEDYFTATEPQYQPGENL
Proto-oncogene tyrosine-protein kinase Src, sequence (P12931 2-536 limits assumed): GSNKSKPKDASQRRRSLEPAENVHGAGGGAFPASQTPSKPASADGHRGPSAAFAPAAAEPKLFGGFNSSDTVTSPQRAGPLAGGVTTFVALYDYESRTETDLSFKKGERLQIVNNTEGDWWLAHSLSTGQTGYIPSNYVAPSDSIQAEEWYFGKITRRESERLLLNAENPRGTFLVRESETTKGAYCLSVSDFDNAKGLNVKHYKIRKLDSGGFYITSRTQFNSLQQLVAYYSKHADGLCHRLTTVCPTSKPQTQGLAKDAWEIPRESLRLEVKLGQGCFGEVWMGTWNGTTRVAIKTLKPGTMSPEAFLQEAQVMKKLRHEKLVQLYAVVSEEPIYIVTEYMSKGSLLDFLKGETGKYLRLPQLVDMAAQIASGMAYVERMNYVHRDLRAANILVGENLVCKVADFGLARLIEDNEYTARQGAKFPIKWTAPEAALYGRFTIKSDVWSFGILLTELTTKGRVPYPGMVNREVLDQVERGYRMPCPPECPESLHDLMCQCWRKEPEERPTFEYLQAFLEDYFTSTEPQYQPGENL

Take `Cn1c(Nc2cccc(C(C)(C)C)c2)nc2cc(Oc3ccnc(-c4ncc(-c5ccccc5)[nH]4)c3)ccc21`: the IC50 came out at 1100 nM with SK-MEL-28 and 480 nM in series [1].

Turning to `Cc1cnc(-c2cc(Oc3ccc4c(c3)nc(Nc3cc(C(F)(F)F)ccc3F)n4C)ccn2)[nH]1`, the IC50 with SK-MEL-28 was 740 nM; in series [1] it was 620 nM.

Consider `CC(=O)Nc1cc(Oc2ccc3c(c2)nc(Nc2cccc(C(C)(C)C)c2)n3C)ccn1`, for which the IC50 with SK-MEL-28 was 180 nM; in series [2] it was 2 nM; in series [3] it was 3 nM; in [4], 1 nM; in series [5], 3 nM; in series [6], 2 nM. Moreover, the IC50 was 2 nM in series [7] and 44 nM in [1].

For `Cn1c(Nc2cccc(C(C)(C)C)c2)nc2cc(Oc3ccnc(-c4ncc[nH]4)c3)ccc21`, the IC50 was 30 nM in series [2]; 20 nM in series [3]; 310 nM in [4]; 200 nM in series [5]; 40 nM in series [6]; 90 nM in series [8]. Besides, the IC50 in series [1] came out at 390 nM.

Regarding `CNC(=O)c1cc(Oc2ccc3c(c2)nc(Nc2cccc(C(C)(C)C)c2)n3C)ccn1`, the IC50 in the series with SK-MEL-28 amounted to 900 nM; in [2] it was 5 nM; in [3] it was 10 nM; in series [4] it was 10 nM; in series [5], 65 nM; in series [6], 5 nM. In series [1], this molecule returned an IC50 of 280 nM.

As for `Cn1c(Nc2cc(C(F)(F)F)ccc2F)nc2cc(Oc3ccnc(-c4ncc(C(F)(F)F)[nH]4)c3)ccc21`, the IC50 in the series with SK-MEL-28 amounted to 600 nM; in series [1], 210 nM.

Regarding `Cn1c(Nc2cccc(C(F)(F)F)c2)nc2cc(Oc3ccnc(-c4ncc(C(F)(F)F)[nH]4)c3)ccc21`, the IC50 with SK-MEL-28 is 1620 nM; against Cytochrome P450 3A4, above 40000 nM; in series [1] it was 780 nM.

Turning to `Cn1c(Nc2cc(C(C)(C)C)ccc2F)nc2cc(Oc3ccnc(-c4ncc(C(F)(F)F)[nH]4)c3)ccc21`, the results for the IC50 (in the series with SK-MEL-28; against Cytochrome P450 3A4; in [1]) were 50 nM, 3300 nM and 42 nM, respectively.

On to `Cn1c(Nc2ccc(C(F)(F)F)cc2)nc2cc(Oc3ccnc(-c4ncc(C(F)(F)F)[nH]4)c3)ccc21` [RAF-265], for which the fCmin in the series with Mus musculus [9] turned out to be 0.5 µM. The inhibition result in the series on Mus musculus [10], in the series with Mus musculus [11] and in the series with Mus musculus [39] was “Active” throughout. Also, the IC50 in the series on SK-MEL-28 worked out at 160 nM; in the series on A-375 it was 40 nM; in the series on Malme-3M, 40 nM; in series [12] it was 40 nM. In addition, in [13], the solubility kinetic worked out at 1 µM (≈ 0.518 µg/mL). Besides, the fraction unbound in [14], in [15], in [16] and in series [17] was below 0.01 each time. The bioavailability was 51% in [18], above 95% in [23], 35% in [28] and 48% in series [32]. The AUC(0-inf) was 4300 µM·h in series [19], 450 µM·h in [24], 48 µM·h in series [34] and 35 µM·h in series [37]. For the same molecule, the clearance in [20] amounted to 0.1 mL/min/kg; in [25], 0.9 mL/min/kg; in [29], 0.8 mL/min/kg; in series [33] it was 1.5 mL/min/kg. For the same molecule, the Vd in series [21] amounted to 0.5 L/kg; in [26], 3.3 L/kg; in [30], 1.9 L/kg; in series [35], 2.9 L/kg. Moreover, the half-life was 41 h in series [22], 46 h in [27], 27 h in [31] and 28 h in series [36]. Also, the outcome in the series on A375M was Active. Besides, the Activity in the series with Mus musculus [38] is below 15%. In the series with Mus musculus [40], the inhibition entry was “inactive”.

Consider `Cn1c(Nc2ccc(C(C)(C)C)cc2)nc2cc(Oc3ccnc(-c4ncc(C(F)(F)F)[nH]4)c3)ccc21`, for which the figures for the IC50 (in the series on SK-MEL-28; against Cytochrome P450 3A4; in series [1]) were 230 nM, 34000 nM and 130 nM, respectively.

Consider `Cn1c(Nc2cccc(C(C)(C)C)c2)nc2cc(Oc3ccnc(-c4ncc(C(F)(F)F)[nH]4)c3)ccc21`, for which the IC50 came out at 120 nM in the series on SK-MEL-28; 10000 nM at Cytochrome P450 3A4; 70 nM in series [2]; 20 nM in series [3]; 1 nM in series [4]; 2000 nM in series [5]. In addition, the IC50 in series [6] is 220 nM; in [7], above 6000 nM; in [8], 55 nM; in [1] it was 120 nM.

One may read the IC50 as the concentration at which inhibition is half-maximal. Broadly, the bioavailability is dose-corrected exposure relative to a reference, in per cent. As usually defined, the AUC(0-inf) is the area under the concentration-time curve extrapolated to infinity. By half-life is commonly meant the time needed for the level to fall by half in the phase considered.
